# Experimental data taken from patent US20050112123A1, “Methods of treating proteinuria” (priority 2003, published 2005).
# “Also recorded” adds a separate entry of the source.
# What was measured:
# transgenic podocytes = experiment: Immunostaining of HIV transgenic podocytes for podocyte and cell cycle proteins
# primary mouse podocytes = experiment: Western blot analysis of nephrin and podocin, primary mouse podocytes; format: cell-based; conditions: primary mouse cultures, FIG. 2
# Method: Experiments were also performed on podocytes derived from C57/bl mice. Glomeruli were sieved and prepared as previously described. […] 61:40-50. Podocytes were grown on collagen 1 coated plates with MGEC-media containing 5% fetal bovine serum (FBS: Summit biotechnology, Ft. Collins, Colo., USA), penicillin (100 U/ml), streptomycin (100 μg/ml), and glutamine (2 mmol/L; all Irvine Scientific, Santa Ana, Calif., USA) at 37° C. in 95% air/5% CO2. Podocytes were identified by previously described criteria (Shankland et al. (1999) supra) and by confirming the presence of podocyte specific proteins—including WT-1, nephrin, podocin, and ezrin—by immunostaining.
# Exposure ofpodocvtes to ATRA. Rat podocytes, mouse podocytes, and growth permissive HSMP were plated at a concentration of 15,000 cell/cm^2 in standard media and allowed to adhere overnight.
# [1] = system: Tg-26 HIV transgenic heterozygous mice; experiment: Tg-26 HIV transgenic mice (HIV-associated nephropathy) in vivo
# podocytes = experiment: Hoechst 33342 staining for apoptosis and binucleated cells; format: cell-based; conditions: at the concentrations of ATRA used in these experiments; statistically insignificant
# Method: To ensure that the anti-proliferative effects of ATRA were not confounded by podocyte apoptosis in podocytes or bi-nucleated cells, Hoechst 33342 (Molecular Probes, Eugene, Oreg., USA) staining was performed as previously reported. Hiromura et al. (1999) J Clin Invest 103:597-604. Careful morphological analysis was performed and the percentage of apoptotic cells was quantitated in adherent and non-adherent cells using inverted fluorescent microscopy as previously described. Hiromura et al. (1999) supra; and Mooney et al. (1997) J Immunol 159:3949-3960.
# rat podocytes = experiment: Immunofluorescent staining of cultured rat podocytes (nephrin, podocin)
# [2] = system: C57BL6 mice with anti-glomerular antibody-mediated podocyte injury; experiment: Anti-glomerular antibody model of podocyte injury: immunostaining of kidney tissue; format: in vivo, mouse; conditions: for PCNA staining (podocyte proliferation) vs control: FIG. 4; for WT-1 staining (podocyte number) vs control: P<0.001, FIG. 5
# Method: Immunofluorescent staining of kidney tissue. Mouse kidney biopsies were fixed in methyl Carnoy's (MC) solution or snap frozen in liquid nitrogen for analysis of proliferating cell nuclear antigen (PCNA), WT-1, podocin, synaptopodin, podocalyxin, and nephrin in vivo following ATRA treatment in anti-glomerular disease. Sections (4 μm) were cut from paraffin embedded MC fixed tissue or from OCT embedded frozen tissue. Frozen sections were then fixed in 100% methanol at −20° C. Mouse monoclonal antibody to PCNA (Beckman Coulter Miami, Fla., USA) or rabbit polyclonal antibody to WT-1 were incubated on MC-fixed tissue, and rabbit polyclonal antibodies to podocin, nephrin, podocalyxin, and synaptopodin were incubated on frozen sections. Primary mouse antibody to PCNA was incubated with a peroxidase conjugated rat anti-mouse IgM antibody (Zymed Laboratories, Inc. So. San Francisco, Calif., USA); all other primary antibodies were incubated with biotinylayted goat anti-rabbit antibody followed by either avidin D conjugated horseradish peroxidase (WT-1) or avidin conjugated AlexaFluor. PCNA and WT-1 stains were visualized with diaminobenzidine (Sigma Chemicals, St. Louis, Mo., USA).
# An antibody-mediated model of podocyte injury was induced in C57BL6 mice with a sheep anti-glomerular antibody (two doses of 0.3 ml/20 gm body weight) over two consecutive days. Kim et al. (1999) Kidney Int 55:2349-2361; and Ophascharoensuk et al. (1998) Kidney Int 54:416-425. After the induction of the anti-glomerular model, but before the development of proteinuria, mice were then divided into an experimental group that received daily injections of ATRA 16.6 mg/kg (IP), and a control group that received vehicle (corn oil). […] The podocyte specific proteins WT-1, nephrin, podocin, synaptopodin, were measured by immunostaining at each time point, as was the proliferation marker, PCNA (see above). Using proliferating cell nuclear antigen (PCNA) as a marker of proliferation and WT-1 as a marker for podocytes, the level of podocyte proliferation was determined.
# [3] = transgenic podocytes, day 7 of growth restriction
# [4] = ATRA treated Tg mice (5 animals)
# [5] = nephritic mice, days 5 and 14 after disease induction, vs control nephritic mice given vehicle
# [6] = nephritic mice, vs control nephritic animals given vehicle
smiles,measurement,setting,value
"CC1=C(/C=C/C(C)=C/C=C/C(C)=C/C(=O)O)C(C)(C)CCC1 [ATRA, all-trans retinoic acid]",cyclin A staining vs standard media,transgenic podocytes; ATRA exposed group,decreased intensity of staining
same,cell number vs standard media,"transgenic podocytes; ATRA group, cyclin A staining",grossly decreased
same,WT-1 staining vs standard media,transgenic podocytes; [3],increased staining intensity
same,cd2ap staining vs transgenic podocytes in standard media,transgenic podocytes; [3],increased intensity of staining
same,cell size and cell number vs standard media,transgenic podocytes; [3],appeared larger and decreased in number; also recorded: increased cell size and decreased cell number
same,CD2AP staining vs standard media group,"transgenic podocytes; transgenic podocytes, day 14 of growth restriction",increased staining intensity
same,decrease in cell number,"transgenic podocytes; transgenic podocytes, day 14 time point",not as prominent
same,nephrin protein level (Western blot),primary mouse podocytes; 1 μM ATRA,increased the protein levels
same,podocin protein level (Western blot),primary mouse podocytes; 1 μM ATRA,increased the protein levels
same,nephrin protein level (Western blot),primary mouse podocytes; 5 μM ATRA,increased the protein levels
same,podocin protein level (Western blot),primary mouse podocytes; 5 μM ATRA,increased the protein levels
same,collapsed glomeruli,[1]; [4],no collapsed glomeruli
same,glomeruli with 0-25% sclerosis,[1]; [4],4.8%
same,glomeruli with 25-50 sclerosis,[1]; [4],1.2%
same,glomeruli with 50-75% or 75-100% sclerosis,[1]; [4],No glomeruli were seen
same,glomeruli with no sclerosis,"[1]; ATRA treated Tg mice (5 animals), 50 glomeruli per tissue sample",94%
same,segmental sclerosis vs carrier treated transgenic animals,"[1]; Tg mice, 4 months of life",reduced the sclerosis by a statistically significant amount
same,serum BUN,[1]; the different groups,no significant difference
same,proteinuria vs carrier treated transgenic animals (Tg C),"[1]; transgenic mice, ATRA 16 mg/kg intraperitoneal three times a week",tended to have less proteinuria
same,significance of difference in proteinuria vs carrier treated animals,"[1]; transgenic mice, all other time points",not significant
same,significance of difference in proteinuria vs carrier treated animals,"[1]; transgenic mice, at 80 days",statistically significant
same,interstitial disease score (tubular dilatation),[1]; two ATRA treated Tg animals,no tubular dilatation
same,cells undergoing apoptosis (Hoechst staining),podocytes,< 4 % of total cells
same,podocin immunostaining compared to control,"rat podocytes; cultured rat podocytes, OptM ATRA",increased immunostaining
same,nephrin immunostaining compared to control cells exposed to vehicle,"rat podocytes; undifferentiated and proliferating rat podocytes, 10 μM ATRA",nephrin immunostaining increased
same,number of cells that stained positive for PCNA vs normal,"[2]; experimental (ATRA treated) mice, day 5, P<0.05 vs normal, FIG. 4 legend",increased
same,PCNA staining (podocyte proliferation) vs control,"[2]; nephritic mice, day 7",did not have a statistically significant effect
same,WT-1 staining (podocyte number) vs control,"[2]; nephritic mice, day 7",prevented the decrease in WT-1 staining; also recorded: prevented the decrease in podocyte number
same,PCNA staining (podocyte proliferation) vs control,"[2]; nephritic mice, day 14",significantly reduced podocyte proliferation; also recorded: significantly reduced PCNA immunostaining
same,WT-1 staining (podocyte number) vs control,"[2]; nephritic mice, day 14",prevented the decrease in WT-1 staining; also recorded: prevented the decrease in podocyte number
same,nephrin immunostaining in kidney,[2]; [5],prevented the decrease in immunostaining
same,podocin immunostaining in kidney,[2]; [5],prevented the decrease in immunostaining
same,synaptopodin immunostaining in kidney,[2]; [5],prevented the decrease in immunostaining
same,CD2AP immunostaining in kidney,[2]; [6],not different from control nephritic animals
same,p35 immunostaining in kidney,[2]; [6],not different from control nephritic animals
